One may read the solubility as how much of the substance goes into solution per volume. A higher solubility goes with a readily soluble substance.

The series can be described thus: solubility of p-methoxybenzoic acid in water. It counts as physicochemical. From the text: p-Methoxybenzoic acid can be obtained under the trade name of DERMOSOFT® 688 from Dr. Straetmans GmbH in a cosmetical grade. The solubility of p-methoxybenzoic acid in water is approximately […]. For use in a cosmetic formulation the product is usually brought into solution with sodium hydroxide or potassium hydroxide in a small amount of water at warm temperatures and worked into an aqueous phase. To evolve the spectrum of effects of p-methoxybenzoic acid completely, afterwards the formula should be re-acidified to a pH-value of 5.5. […] This may show, that the initial homogenous solutions are merely meta-stable systems.

SMILES strings stand for the structures. In brackets after ≈: the same amount, converted by molar mass.

For the compound `COc1ccc(C(=O)O)cc1` [p-methoxybenzoic acid], the solubility was ~5000 µg/mL (≈ 32.9 mM).

The values are drawn from patent US7416722B2, “Concentrated, aqueous solutions of p-methoxybenzoic acid for use in cosmetic and dermatologic formulations” (Dr. Straetmans GmbH, priority 2005, dated 2008).
